# Reference: patent US11207310B2 (PRILENIA NEUROTHERAPEUTICS LTD., priority 2016, dated 2021)
# Where two headings read alike, the source gives them in different places.
# How the values were obtained:
# patients with HD = system: patients with HD
# Excerpt: The mPPT quantifies the patient's performance in physical tasks (Brown 2000). It is a standardized 9-item test (standing static balance, chair rise, lift a book and put it on a shelf, put on and remove a jacket, pick up a penny from floor, turn 360 degrees, 50 feet walk, climb one flight of stairs, climb stairs test (flights up and down)), that measures the patient's performance on functional tasks. Both the speed and accuracy at which the patients complete the items are taken into account during scoring. The maximum score of the test is 36, with higher scores indicating better performance. The Multiple Sclerosis Walking Scale (MSWS-12) was adapted to become a generic measure of walking and mobility and renamed the Walk-12.
# The secondary efficacy variable and endpoint, the Modified Physical Performance Test (mPPT), quantifies the patient's performance in physical tasks (Brown 2000). It is a standardized 9-item test that measures the patient's performance on functional tasks. Assistive devices are permitted for the tasks that require a standing position (items 6 to 9). Both the speed and accuracy at which the patients complete the items were taken into account during scoring. The maximum score of the test is 36, with higher scores indicating better performance.
# neuroblastoma cell line = settings: S1R-dependent manner (Geva 2016); cited from earlier work
# [1] = 45 mg bid, HD1 and HD2 patients, 52 weeks
# [2] = 45 mg bid, full analysis set, 26 weeks
# [3] = 45 mg bid, full analysis set, 52 weeks
# [4] = 45 mg bid, late stage HD patients with BL TFC<7, 52 weeks
# [5] = 67.5 mg bid, HD1 and HD2 patients, 52 weeks
# [6] = 67.5 mg bid, full analysis set, 26 weeks
# [7] = 67.5 mg bid, full analysis set, 52 weeks
# [8] = 67.5 mg bid, late stage HD patients with BL TFC<7, 52 weeks
# [9] = 90 mg bid, HD1 and HD2 patients, 52 weeks
# [10] = 90 mg bid, full analysis set, 26 weeks
# [11] = 90 mg bid, full analysis set, 52 weeks
# [12] = 90 mg bid, late stage HD patients with BL TFC<7, 52 weeks
# [13] = 112.5 mg bid, HD1 and HD2 patients, 52 weeks
# [14] = 112.5 mg bid, full analysis set, 26 weeks
# [15] = 112.5 mg bid, full analysis set, 52 weeks
# [16] = 112.5 mg bid, late stage HD patients with BL TFC<7, 52 weeks
compound,measurement,setting,value
"CCCN1CCC(c2cccc(S(C)(=O)=O)c2)CC1 [pridopidine, 4-[3-(methylsulfonyl)phenyl]-1-propyl-piperidine]","Change from baseline in mPPT Climb One Flight of Stairs scores, Δ to placebo",patients with HD; [1],0.27
same,"Change from baseline in mPPT Climb Stairs (Flights Up and Down) scores, Δ to placebo",patients with HD; [1],−0.01
same,"Change from baseline in mPPT Climb One Flight of Stairs scores, Δ to placebo","patients with HD; 45 mg bid, HD1 patients, 52 weeks",−0.02
same,"Change from baseline in mPPT Climb One Flight of Stairs scores, Δ to placebo","patients with HD; 45 mg bid, HD2 patients, 52 weeks",0.35
same,"Change from baseline in mPPT Climb Stairs (Flights Up and Down) scores, Δ to placebo",patients with HD; [2],−0.03
same,"Δ to placebo: mPPT 50 Feet Walk scores, change from baseline",patients with HD; [2],−0.02
same,Δ to placebo: mPPT Chair Rise scores,patients with HD; [2],0.05
same,"Δ to placebo: mPPT Climb One Flight of Stairs scores, change from baseline",patients with HD; [2],0.08
same,"Δ to placebo: mPPT Lift a Book and Put it on the Shelf scores, change from baseline",patients with HD; [2],0.14
same,"Δ to placebo: mPPT Pick up a Penny from the Floor scores, change from baseline",patients with HD; [2],−0.13
same,"Δ to placebo: mPPT Put on and Remove a Jacket scores, change from baseline",patients with HD; [2],−0.22
same,"Δ to placebo: mPPT Turn 360 Degrees scores, change from baseline",patients with HD; [2],0.12
same,Δ to placebo: mPPT standing static balance scores,patients with HD; [2],0.07
same,"Change from baseline in mPPT Climb Stairs (Flights Up and Down) scores, Δ to placebo",patients with HD; [3],0.17
same,"Δ to placebo: mPPT 50 Feet Walk scores, change from baseline",patients with HD; [3],−0.03
same,Δ to placebo: mPPT Chair Rise scores,patients with HD; [3],−0.05
same,"Δ to placebo: mPPT Climb One Flight of Stairs scores, change from baseline",patients with HD; [3],0.26
same,"Δ to placebo: mPPT Lift a Book and Put it on the Shelf scores, change from baseline",patients with HD; [3],0.25
same,"Δ to placebo: mPPT Pick up a Penny from the Floor scores, change from baseline",patients with HD; [3],0.04
same,"Δ to placebo: mPPT Put on and Remove a Jacket scores, change from baseline",patients with HD; [3],0.2
same,"Δ to placebo: mPPT Turn 360 Degrees scores, change from baseline",patients with HD; [3],−0.12
same,Δ to placebo: mPPT standing static balance scores,patients with HD; [3],−0.15
same,"Change from baseline in mPPT Climb One Flight of Stairs scores, Δ to placebo","patients with HD; 45 mg bid, late stage HD patients with BL TFC 0-6, 52 weeks",0.19
same,"Change from baseline in mPPT Climb Stairs (Flights Up and Down) scores, Δ to placebo",patients with HD; [4],0.72
same,"Δ to placebo: mPPT Climb One Flight of Stairs scores, change from baseline",patients with HD; [4],0.19
same,"Change from baseline in mPPT Climb One Flight of Stairs scores, Δ to placebo",patients with HD; [5],0.3
same,"Change from baseline in mPPT Climb Stairs (Flights Up and Down) scores, Δ to placebo",patients with HD; [5],0.01
same,"Change from baseline in mPPT Climb One Flight of Stairs scores, Δ to placebo","patients with HD; 67.5 mg bid, HD1 patients, 52 weeks",0.01
same,"Change from baseline in mPPT Climb One Flight of Stairs scores, Δ to placebo","patients with HD; 67.5 mg bid, HD2 patients, 52 weeks",0.34
same,"Change from baseline in mPPT Climb Stairs (Flights Up and Down) scores, Δ to placebo",patients with HD; [6],−0.14
same,"Δ to placebo: mPPT 50 Feet Walk scores, change from baseline",patients with HD; [6],0
same,Δ to placebo: mPPT Chair Rise scores,patients with HD; [6],0.01
same,"Δ to placebo: mPPT Climb One Flight of Stairs scores, change from baseline",patients with HD; [6],0.11
same,"Δ to placebo: mPPT Lift a Book and Put it on the Shelf scores, change from baseline",patients with HD; [6],0.1
same,"Δ to placebo: mPPT Pick up a Penny from the Floor scores, change from baseline",patients with HD; [6],0.14
same,"Δ to placebo: mPPT Put on and Remove a Jacket scores, change from baseline",patients with HD; [6],0.17
same,"Δ to placebo: mPPT Turn 360 Degrees scores, change from baseline",patients with HD; [6],−0.06
same,Δ to placebo: mPPT standing static balance scores,patients with HD; [6],−0.2
same,"Change from baseline in mPPT Climb Stairs (Flights Up and Down) scores, Δ to placebo",patients with HD; [7],0.04
same,"Δ to placebo: mPPT 50 Feet Walk scores, change from baseline",patients with HD; [7],0.15
same,Δ to placebo: mPPT Chair Rise scores,patients with HD; [7],−0.1
same,"Δ to placebo: mPPT Climb One Flight of Stairs scores, change from baseline",patients with HD; [7],0.13
same,"Δ to placebo: mPPT Lift a Book and Put it on the Shelf scores, change from baseline",patients with HD; [7],0.17
same,"Δ to placebo: mPPT Pick up a Penny from the Floor scores, change from baseline",patients with HD; [7],0.09
same,"Δ to placebo: mPPT Put on and Remove a Jacket scores, change from baseline",patients with HD; [7],0.21
same,"Δ to placebo: mPPT Turn 360 Degrees scores, change from baseline",patients with HD; [7],−0.1
same,Δ to placebo: mPPT standing static balance scores,patients with HD; [7],−0.19
same,"Change from baseline in mPPT Climb One Flight of Stairs scores, Δ to placebo","patients with HD; 67.5 mg bid, late stage HD patients with BL TFC 0-6, 52 weeks",−0.3
same,"Change from baseline in mPPT Climb Stairs (Flights Up and Down) scores, Δ to placebo",patients with HD; [8],0.16
same,"Δ to placebo: mPPT Climb One Flight of Stairs scores, change from baseline",patients with HD; [8],−0.3
same,"Change from baseline in mPPT Climb One Flight of Stairs scores, Δ to placebo",patients with HD; [9],0.22
same,"Change from baseline in mPPT Climb Stairs (Flights Up and Down) scores, Δ to placebo",patients with HD; [9],0.1
same,"Change from baseline in mPPT Climb One Flight of Stairs scores, Δ to placebo","patients with HD; 90 mg bid, HD1 patients, 52 weeks",−0.06
same,"Change from baseline in mPPT Climb One Flight of Stairs scores, Δ to placebo","patients with HD; 90 mg bid, HD2 patients, 52 weeks",0.28
same,"Change from baseline in mPPT Climb Stairs (Flights Up and Down) scores, Δ to placebo",patients with HD; [10],−0.08
same,"Δ to placebo: mPPT 50 Feet Walk scores, change from baseline",patients with HD; [10],−0.1
same,Δ to placebo: mPPT Chair Rise scores,patients with HD; [10],0.01
same,"Δ to placebo: mPPT Climb One Flight of Stairs scores, change from baseline",patients with HD; [10],0.15
same,"Δ to placebo: mPPT Lift a Book and Put it on the Shelf scores, change from baseline",patients with HD; [10],0.04
same,"Δ to placebo: mPPT Pick up a Penny from the Floor scores, change from baseline",patients with HD; [10],0.1
same,"Δ to placebo: mPPT Put on and Remove a Jacket scores, change from baseline",patients with HD; [10],−0.01
same,"Δ to placebo: mPPT Turn 360 Degrees scores, change from baseline",patients with HD; [10],0.12
same,Δ to placebo: mPPT standing static balance scores,patients with HD; [10],−0.1
same,"Change from baseline in mPPT Climb Stairs (Flights Up and Down) scores, Δ to placebo",patients with HD; [11],−0.04
same,"Δ to placebo: mPPT 50 Feet Walk scores, change from baseline",patients with HD; [11],−0.23
same,Δ to placebo: mPPT Chair Rise scores,patients with HD; [11],−0.31
same,"Δ to placebo: mPPT Climb One Flight of Stairs scores, change from baseline",patients with HD; [11],0.08
same,"Δ to placebo: mPPT Lift a Book and Put it on the Shelf scores, change from baseline",patients with HD; [11],0.22
same,"Δ to placebo: mPPT Pick up a Penny from the Floor scores, change from baseline",patients with HD; [11],0.14
same,"Δ to placebo: mPPT Put on and Remove a Jacket scores, change from baseline",patients with HD; [11],0.08
same,"Δ to placebo: mPPT Turn 360 Degrees scores, change from baseline",patients with HD; [11],0.04
same,Δ to placebo: mPPT standing static balance scores,patients with HD; [11],−0.14
same,"Change from baseline in mPPT Climb One Flight of Stairs scores, Δ to placebo","patients with HD; 90 mg bid, late stage HD patients with BL TFC 0-6, 52 weeks",−0.26
same,"Change from baseline in mPPT Climb Stairs (Flights Up and Down) scores, Δ to placebo",patients with HD; [12],−0.36
same,"Δ to placebo: mPPT Climb One Flight of Stairs scores, change from baseline",patients with HD; [12],−0.26
same,"Change from baseline in mPPT Climb One Flight of Stairs scores, Δ to placebo",patients with HD; [13],0.23
same,"Change from baseline in mPPT Climb Stairs (Flights Up and Down) scores, Δ to placebo",patients with HD; [13],0.07
same,"Change from baseline in mPPT Climb One Flight of Stairs scores, Δ to placebo","patients with HD; 112.5 mg bid, HD1 patients, 52 weeks",0.18
same,"Change from baseline in mPPT Climb One Flight of Stairs scores, Δ to placebo","patients with HD; 112.5 mg bid, HD2 patients, 52 weeks",0.23
same,"Change from baseline in mPPT Climb Stairs (Flights Up and Down) scores, Δ to placebo",patients with HD; [14],−0.08
same,"Δ to placebo: mPPT 50 Feet Walk scores, change from baseline",patients with HD; [14],−0.17
same,Δ to placebo: mPPT Chair Rise scores,patients with HD; [14],0.12
same,"Δ to placebo: mPPT Climb One Flight of Stairs scores, change from baseline",patients with HD; [14],0.16
same,"Δ to placebo: mPPT Lift a Book and Put it on the Shelf scores, change from baseline",patients with HD; [14],0.14
same,"Δ to placebo: mPPT Pick up a Penny from the Floor scores, change from baseline",patients with HD; [14],0.07
same,"Δ to placebo: mPPT Put on and Remove a Jacket scores, change from baseline",patients with HD; [14],−0.03
same,"Δ to placebo: mPPT Turn 360 Degrees scores, change from baseline",patients with HD; [14],0.2
same,Δ to placebo: mPPT standing static balance scores,patients with HD; [14],0.05
same,"Change from baseline in mPPT Climb Stairs (Flights Up and Down) scores, Δ to placebo",patients with HD; [15],0.1
same,"Δ to placebo: mPPT 50 Feet Walk scores, change from baseline",patients with HD; [15],−0.15
same,Δ to placebo: mPPT Chair Rise scores,patients with HD; [15],−0.12
same,"Δ to placebo: mPPT Climb One Flight of Stairs scores, change from baseline",patients with HD; [15],0.11
same,"Δ to placebo: mPPT Lift a Book and Put it on the Shelf scores, change from baseline",patients with HD; [15],0.12
same,"Δ to placebo: mPPT Pick up a Penny from the Floor scores, change from baseline",patients with HD; [15],0.07
same,"Δ to placebo: mPPT Put on and Remove a Jacket scores, change from baseline",patients with HD; [15],−0.18
same,"Δ to placebo: mPPT Turn 360 Degrees scores, change from baseline",patients with HD; [15],−0.08
same,Δ to placebo: mPPT standing static balance scores,patients with HD; [15],−0.12
same,"Change from baseline in mPPT Climb One Flight of Stairs scores, Δ to placebo","patients with HD; 112.5 mg bid, late stage HD patients with BL TFC 0-6, 52 weeks",−0.15
same,"Change from baseline in mPPT Climb Stairs (Flights Up and Down) scores, Δ to placebo",patients with HD; [16],0.31
same,"Δ to placebo: mPPT Climb One Flight of Stairs scores, change from baseline",patients with HD; [16],−0.15
same,secretion of brain-derived neurotrophic factor (BDNF),neuroblastoma cell line,enhances secretion
